The text below walks through data of patent US20050250850A1, “Amino acid composition promoting collagen synthesis” (Ajinomoto Co., Inc., priority 2004, published 2005).

For the assay, the system named is collagen synthesis in skin. Put plainly: Rate of collagen synthesis in rat skin (incorporation of stable isotope-labelled L-phenylalanine into collagen). The assay is classed as in vivo, SD (IGS) male rats. The conditions noted are these: rats fed protein-free food for one week, continuous administration into the jugular vein for approx. three and a half hours, neutral-salt-soluble newly synthesized collagen, t-test vs saline, * p<0.05, FIG. 1.

Text: SD (IGS) male rats consisting of 4 to 6 individuals per group were fed protein-free food (0% casein) for one week to groups of, after which the rats were used in the following experiments.
The administration fluids were each administered continuously into the jugular vein for approximately three and a half hours. Stable isotope-labelled L-phenylalanine was used to determine the rate of collagen synthesis by measuring the labelled percentage of stable isotope-labelled L-phenylalanine that had been incorporated in collagen protein within a fixed period of time. Skin was used as the tissue, and fractions of newly synthesized collagen dissoluble in a neutral salt solution were used as the collagen.
The group administered with physiological saline was used as the control, and assay was conducted by t-test. The symbol * in the figure represents p<0.05. […] Rate of collagen synthesis=ΔEt/ΔEf/ΔT (1) • ΔEt: labelled percentage of the phenylalanine in collagen fractions per unit time • ΔEf: labelled percentage of the free phenylalanine in the skin tissue fluid per unit time • ΔT: unit time

As for `NC(=O)CC[C@H](N)C(=O)O` [L-glutamine], the “rate of collagen synthesis in comparison with the group administered with physiological saline” value was “enhancement from saline was not observed”.
